Results from PubChem BioAssay (NCI).
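Five concentrations, 48 hours, 96-well plates. Definition used: TGI = concentration required for complete inhibition of growth.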

What was measured:
Test in all cases: DTP human tumour cell line panel, 48 h
MDA-MB-435 = test system: MDA-MB-435
HOP-92 NSCLC = test system: HOP-92 NSCLC
KM12 colon = test system: KM12 colon
OVCAR-3 ovarian = test system: OVCAR-3 ovarian
NCI-H226 lung = test system: NCI-H226 lung
SF-295 CNS = test system: SF-295 CNS
CAKI-1 renal = test system: CAKI-1 renal
K-562 leukemia = test system: K-562 leukemia
HCC-2998 colon = test system: HCC-2998 colon
U251 CNS = test system: U251 CNS

| SMILES | TGI (MDA-MB-435) | TGI (HOP-92 NSCLC) | TGI (KM12 colon) | TGI (OVCAR-3 ovarian) | TGI (NCI-H226 lung) | TGI (SF-295 CNS) | TGI (CAKI-1 renal) | TGI (K-562 leukemia) | TGI (HCC-2998 colon) | TGI (U251 CNS) |
| --- | --- | --- | --- | --- | --- | --- | --- | --- | --- | --- |
| COC1(CC[C@@H](C)COC2OC(CO)C(O)C(O)C2O)O[C@H]2C[C@H]3[C@@H]4CC=C5C[C@@H](OC6OC(CO)C(O)C(OC7OC(CO)C(O)C(O)C7O)C6OC6OC(C)C(O)C(O)C6O)CC[C@]5(C)[C@H]4CC[C@]3(C)[C@H]2[C@@H]1C (stereo not given in full) | 8.52 µM | 12.3 µM | 4.36 µM | 32.2 µM | 26.5 µM | 11.3 µM | 12 µM | > 62.8 µM | 10.6 µM | 4.13 µM |
| O=c1[nH]c(NCc2ccc(Cl)cc2)nc2nc[nH]c12 | > 100 µM | > 100 µM | > 100 µM | > 100 µM | > 100 µM | > 100 µM | > 100 µM | > 100 µM | > 100 µM | > 100 µM |
| CC(Oc1ccccc1)C(=O)NNC(=O)OC(C)(C)C (stereo not given) | > 100 µM | > 100 µM | > 100 µM | > 100 µM | > 100 µM | > 100 µM | > 100 µM | > 100 µM | > 100 µM | > 100 µM |
| O=C1C(c2c(O)[nH]c3ccc(Br)cc23)=Nc2ccc(Br)cc21 | > 100 µM | > 100 µM | > 100 µM | > 100 µM | > 100 µM | > 100 µM | > 100 µM | > 100 µM | > 100 µM | 35 µM |
| C/C(=N\O)c1cccc[n+]1Cc1ccccc1 | > 100 µM | > 100 µM | > 100 µM | > 100 µM | > 100 µM | > 100 µM | > 100 µM | > 100 µM | > 100 µM | > 100 µM |
| O=C1CSC(c2ccc(Cl)cc2Cl)N1c1ccc(Oc2ccc(Cl)cc2)c(Cl)c1 (stereo not given) | 26.3 µM | 49.4 µM | 50.1 µM | 65.9 µM | > 100 µM | 50.9 µM | 98.1 µM | > 100 µM | > 100 µM | > 100 µM |
| C(#CP(c1ccccc1)c1ccccc1)P(C#CP(c1ccccc1)c1ccccc1)c1ccccc1 | > 100 µM | > 100 µM | > 100 µM | > 100 µM | > 100 µM | 97.6 µM | > 100 µM | > 100 µM | > 100 µM | > 100 µM |
| c1ccc2c(c1)cc1n2CCc2c-1[nH]c1ccccc21 | > 10 µM | > 10 µM | > 10 µM | > 10 µM | > 10 µM | > 10 µM | > 10 µM | > 10 µM | > 10 µM | > 10 µM |
| COc1cc(OC)c2c(c1)OC(c1cccnc1)C(c1ccccc1)C2=O (stereo not given) | > 100 µM | > 100 µM | > 100 µM | > 100 µM | > 100 µM | > 100 µM | > 100 µM | > 100 µM | > 100 µM | > 100 µM |
| O=C(NO)NCCCl | > 100 µM | > 100 µM | > 100 µM | > 100 µM | > 100 µM | > 100 µM | > 100 µM | > 100 µM | > 100 µM | > 100 µM |
| COc1cc2c(/C=C3/C(=O)N(C)c4ccc(O)cc43)c(Cl)[nH]c2cc1C | 0.124 µM | 38.5 µM | 6.64 µM | 0.597 µM | 16.2 µM | 2.93 µM | 13.6 µM | 11.7 µM | 0.85 µM | 17.6 µM |
| CC(=O)OCC1OC(n2c(Br)nc3c2c(=O)n(C)c(=O)n3C)C(OC(C)=O)C1OC(C)=O (stereo not given) | > 100 µM | > 100 µM | > 100 µM | > 100 µM | > 100 µM | > 100 µM | > 100 µM | > 100 µM | > 100 µM | > 100 µM |
| C=C(Cl)C(Cl)(CCl)CCC(Br)C(C)(C)Br (stereo not given) | > 10 µM | > 10 µM | > 10 µM | > 10 µM | > 10 µM | > 10 µM | > 10 µM | > 10 µM | > 10 µM | > 10 µM |
| Brc1cccc(C2ON=C(c3ccccc3)N2C23CC4CC(CC(C4)C2)C3)c1 (stereo not given) | > 10 µM | > 10 µM | > 10 µM | > 10 µM | > 10 µM | > 10 µM | > 10 µM | > 10 µM | > 10 µM | > 10 µM |
| Br[C@@H]1[C@H]2c3nc4ccccc4nc3[C@@H]1C[C@H]2Br | > 100 µM | > 100 µM | > 100 µM | > 100 µM | 86.2 µM | > 100 µM | > 100 µM | > 100 µM | > 100 µM | > 100 µM |
